These results are taken from paper PMC10189658 (Journal of inorganic biochemistry, 2023).

The target of the assay is T1, human heme oxygenase-1 (hHO-1) (Homo sapiens, UniProt P09601).
T1 sequence (P09601 1-288): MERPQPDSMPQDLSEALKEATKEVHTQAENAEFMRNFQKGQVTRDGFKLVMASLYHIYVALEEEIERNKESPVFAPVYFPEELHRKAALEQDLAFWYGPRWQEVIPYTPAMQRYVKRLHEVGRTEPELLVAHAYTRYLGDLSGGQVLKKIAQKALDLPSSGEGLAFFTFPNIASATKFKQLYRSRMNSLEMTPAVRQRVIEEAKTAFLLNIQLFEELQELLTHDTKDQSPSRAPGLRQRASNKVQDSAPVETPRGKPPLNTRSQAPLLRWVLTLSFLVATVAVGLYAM
Put plainly: UV-Vis Soret equilibrium binding titration.

The term Kd denotes the constant that tells how readily two partners part at equilibrium. The low end stands for tighter binding, the high end for weaker binding. The molecule `Brc1ccc(CCC2(Cn3ccnc3)OCCO2)cc1` [OB-24] gave a dissociation constant Kd of 4.46 ± 0.8 µM.
